Source: patent US6699869B1, “β-sheet mimetics and use thereof as inhibitors of biologically active peptides or proteins” (Myriad Genetics Inc., priority 1995, dated 2004)

How the values were obtained:
bovine thrombin = molecular target: T1, bovine thrombin (Bos taurus, UniProt P00735); assay: thrombin assay, hydrolysis of structure (11b) as proteolytic substrate; assay type: biochemical; conditions: for kcat/KM (thrombin): bovine thrombin, 37° C.
T1 construct: bovine thrombin (from Sigma); purchased Sigma
Experimental: (§1) Both the thrombin and Factor VII assays of this experiment were carried out at 37° C. using a Hitachi UV/Vis spectrophotometer (model U-3000). Structure (11b) was dissolved in deionized water. The concentration was determined from the absorbance at 342 nm. […] Initial velocities were calculated from the initial linear portion of the reaction progress curve. Kinetic parameters were determined by unweighted nonlinear least-squares fitting of the simple Michaelis-Menten equation to the experimental data using GraFit (Version 3.0, Erithacus Software Limited).
For the thrombin assay, experiments were performed in pH 8.4 Tris buffer (Tris, 0.05M; NaCl, 0.15M). 6.4 NIH units of bovine thrombin (from Sigma) were dissolved into 10 ml of the assay buffer to yield 10 nM thrombin solution. […] The first two minutes of the reactions were recorded for initial velocity determination.

[1] = molecular target: T2, human Factor VIIa (FVIIa) and human tissue factor (TF) (Homo sapiens, UniProt P08709); assay: Factor VII assay, hydrolysis of structure (11b) as proteolytic substrate; assay type: biochemical; conditions: for kcat/KM (Factor VII): human FVIIa and TF, pH 8.0 Tris buffer, 37° C.
T2 construct: human Factor VIIa (FVIIa)
Experimental: as §1
For the Factor VII assay, pH 8.0 Tris buffer (0.05 M Tris, 5 mM CaCl2, 0.15 M NaCl, 0.1% TWEEN 20, 0.1% BSA) was used. 10 μl of 20 μM human Factor VIIa (FVIIa) and 22 μM of human tissue factor (TF) was brought to assay buffer to make 160 nM FVIIa and TF solutions, respectively. […] The initial 3 minutes reaction progress curves were recorded. […] The kcat/KM was, calculated from the slope and found to be 17,500 M^−1 s^−1.

control plasma = assay: prothrombin time (PT) in control plasma; conditions: compared with PPACK
Experimental: Then 200 μl of prewarmed (at 37° C. for ˜10 minutes) thromboplastin with calcium (from Sigma) was rapidly added into the plasma sample.

aPTT and TT = assay: pharmacodynamic study in rats (aPTT and TT of plasma samples); assay type: in vivo, rat; conditions: male Sprague Dawley rats, 4 mg/kg IV and 10 mg/kg PO
Experimental: Specifically, a pharmacodynamic and pharmacokinetic study of structure (20b) was conducted in male Sprague Dawley rats. […] Groups of rats (n=3 or 4) were sacrificed and exsanguinated at 0.25, 0.5, 1, 2, 4 and 8 hours following dosing. Efficacy parameters, aPTT and TT; were measured for each plasma sample.

T2 sequence (P08709 213-466 limits assumed): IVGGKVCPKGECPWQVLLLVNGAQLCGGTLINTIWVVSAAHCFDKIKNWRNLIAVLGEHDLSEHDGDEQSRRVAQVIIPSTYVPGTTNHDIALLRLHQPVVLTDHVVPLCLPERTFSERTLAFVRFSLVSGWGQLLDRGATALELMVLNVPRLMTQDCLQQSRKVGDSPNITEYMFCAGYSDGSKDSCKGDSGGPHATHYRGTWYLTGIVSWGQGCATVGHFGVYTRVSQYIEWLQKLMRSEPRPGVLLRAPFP
T2 sequence (P08709 61-212 partner limits assumed): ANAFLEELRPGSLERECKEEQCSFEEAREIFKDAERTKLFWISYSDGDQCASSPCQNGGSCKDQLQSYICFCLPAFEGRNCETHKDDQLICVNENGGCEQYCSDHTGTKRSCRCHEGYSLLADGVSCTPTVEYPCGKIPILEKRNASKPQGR
T2 sequence (P13726 33-251 partner limits assumed): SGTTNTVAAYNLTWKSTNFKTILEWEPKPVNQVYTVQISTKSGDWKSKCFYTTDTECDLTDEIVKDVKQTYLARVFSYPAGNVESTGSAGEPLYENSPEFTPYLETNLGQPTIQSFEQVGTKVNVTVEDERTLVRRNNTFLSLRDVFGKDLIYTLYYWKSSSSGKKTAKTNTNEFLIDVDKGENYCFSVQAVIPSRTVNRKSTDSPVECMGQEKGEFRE

kcat/KM (thrombin) (bovine thrombin)	kcat/KM (Factor VII) [1]	Compound	other results
2.2e+07 M⁻¹ s⁻¹	12700 M⁻¹ s⁻¹	NC(N)=NCCCC(NC(=O)C1CCCN1C(=O)C(N)Cc1ccccc1)C(=O)Nc1ccc([N+](=O)[O-])cc1 (centres unmarked) [(D)FPR-PNA, reference compound]	
1.67e+07 M⁻¹ s⁻¹	17,500 M^−1 s^−1	N=C(N)NCCC[C@H](NC(=O)[C@@H]1CCN2CC[C@@](N)(Cc3ccccc3)C(=O)N12)C(=O)Nc1ccc([N+](=O)[O-])cc1 [Structure (11b)]	Activity compared to the control (D)FPR-PNA, thrombin (bovine thrombin; ratio of kcat/KM to control): 0.76; Activity compared to the control (D)FPR-PNA, Factor VII ([1]; ratio of kcat/KM to control): 1.38
		N=C(N)NCCC[C@H](NC(=O)[C@@H]1CCN2CC[C@@](N)(Cc3ccccc3)C(=O)N12)C(=O)CCl [Structure (13b)]	time required to form clot (PT), in words (control plasma): comparable with PPACK
		N=C(N)NCCC[C@H](NC(=O)[C@@H]1CCN2CC[C@@](N)(Cc3ccccc3)C(=O)N12)C(=O)c1nc2ccccc2s1 [Structure (20b)]	in vivo efficacy (aPTT and TT) (aPTT and TT): in vivo efficacy
